IC50 data for 13 molecules are collected here from BindingDB's records for doi:10.7270/Q2DV1HSV (Jishou University, 2017).

Sequence of Alpha-glucosidase MAL32 (P38158 whole entry): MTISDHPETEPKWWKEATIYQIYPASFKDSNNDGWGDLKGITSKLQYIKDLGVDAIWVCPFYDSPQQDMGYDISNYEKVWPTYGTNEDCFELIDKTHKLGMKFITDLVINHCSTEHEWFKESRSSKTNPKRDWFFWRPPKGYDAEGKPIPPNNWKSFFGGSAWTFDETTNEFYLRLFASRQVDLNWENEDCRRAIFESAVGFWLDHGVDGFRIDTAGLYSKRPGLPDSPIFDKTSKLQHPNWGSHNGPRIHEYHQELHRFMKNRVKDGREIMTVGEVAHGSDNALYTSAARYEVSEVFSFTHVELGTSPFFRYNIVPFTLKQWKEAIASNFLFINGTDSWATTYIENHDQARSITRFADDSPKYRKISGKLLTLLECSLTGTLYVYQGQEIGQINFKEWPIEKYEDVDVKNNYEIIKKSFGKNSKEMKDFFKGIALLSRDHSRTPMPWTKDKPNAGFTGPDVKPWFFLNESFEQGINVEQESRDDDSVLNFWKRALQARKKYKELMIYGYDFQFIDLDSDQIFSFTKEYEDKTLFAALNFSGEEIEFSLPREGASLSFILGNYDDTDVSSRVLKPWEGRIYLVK

The experiment deals with Alpha-glucosidase MAL32 (Saccharomyces cerevisiae (strain ATCC 204508 / S288c), UniProt P38158). As to the kind of experiment: In Vitro α-Glucosidase Inhibitory Assay. Conditions: pH 6.8; 37 °C. The method, then:
The α-glucosidase inhibition assay had been carried out using baker's yeast α-glucosidase (EC 3.2.1.20) and p-nitrophenyl α-d-glucopyranoside. The test compounds were dissolved in DMSO to prepare the required distributing concentration. α-Glucosidase inhibitory activity was assayed by using 0.1 M phosphate buffer (pH 6.8) at 37 °C. The enzyme (0.1 U/mL) in phosphate buffer saline was incubated with various concentrations of test compounds at 37 °C for 15 min. […] After further incubation at 37 °C for 30 min. […] The sample solution was replaced by DMSO as a control. Acarbose was used as a positive control. All experiments were carried out in triplicates.
In the case of `O=C1Nc2ccccc2C1(c1cn(Cc2ccccc2)c2ccccc12)c1cn(Cc2ccccc2)c2ccccc12` [1,1''-Dibenzyl-1H,1''H-[3,3':3',3''-terindol]-2'(1'H)-one (4f)], 9.83 µM corresponded to half-maximal inhibition (IC50). This lies in the single-digit micromolar range.

As for `CCCn1cc(C2(c3cn(CCC)c4ccccc34)C(=O)Nc3ccccc32)c2ccccc21` [1,1''-Dipropyl-[3,3':3',3''-terindolin]-2'-one (4k)], inhibition was half-maximal at 11 µM (IC50).

As for `CCCCn1cc(C2(c3cn(CCCC)c4ccccc34)C(=O)Nc3ccccc32)c2ccccc21` [1,1''-Dibutyl-[3,3':3',3''-terindolin]-2'-one (4m)], the concentration for half-maximal inhibition (IC50) (as a rule, the midpoint of a concentration-inhibition curve) turned out to be 13.6 µM.

In the case of `O=C1Nc2ccccc2C1(c1cn(Cc2ccc(Br)cc2)c2ccccc12)c1cn(Cc2ccc(Br)cc2)c2ccccc12` [1,1''-bis(4-Bromobenzyl)-1H,1''H-[3,3':3',3''-terindol]-2'(1'H)-one (4h)], inhibition was half-maximal at 9.16 µM (IC50).

The molecule `O=C1Nc2ccc(Br)cc2C1(c1c[nH]c2ccccc12)c1c[nH]c2ccccc12` [5'-Bromo-1H,1''H-[3,3':3',3''-terindol]-2'(1'H)-one (4b)] registered an IC50 of 20.5 µM.

Turning to `CC(C)n1cc(C2(c3cn(C(C)C)c4ccccc34)C(=O)Nc3ccccc32)c2ccccc21` [1,1''-Diisopropyl-[3,3':3',3''-terindolin]-2'-one (4l)], the IC50 is 10.3 µM.

Turning to `Cc1ccc2c(c1)C(c1c[nH]c3ccccc13)(c1c[nH]c3ccccc13)C(=O)N2` [5'-Methyl-1H,1''H-[3,3':3',3''-terindol]-2'(1'H)-one (4d)], the IC50 is 30.1 µM. This IC50 lies about 2.9-fold higher than the previous one.

In the case of `O=C1Nc2ccccc2C1(c1c[nH]c2ccccc12)c1c[nH]c2ccccc12` [1H,1''H-[3,3':3',3''-terindol]-2'(1'H)-one (4a)], the IC50 was determined as 146 µM. This IC50 lies about 4.9-fold higher than the previous one.

`Cn1cc(C2(c3cn(C)c4ccccc34)C(=O)Nc3ccccc32)c2ccccc21` [1,1''-Dimethyl-1H,1''H-[3,3':3',3''-terindol]-2'(1'H)-one (4e)] returned an IC50 of 13.7 µM.

In turn, `O=C1Nc2ccccc2C1(c1cn(Cc2ccccc2F)c2ccccc12)c1cn(Cc2ccccc2F)c2ccccc12` [1,1''-bis(2-Fluorobenzyl)-[3,3':3',3''-terindolin]-2'-one (4j)] had an IC50 of 5.98 µM.

For the molecule `O=C1Nc2ccccc2C1(c1cn(Cc2cccc(F)c2)c2ccccc12)c1cn(Cc2cccc(F)c2)c2ccccc12` [1,1''-bis(3-Fluorobenzyl)-1H,1''H-[3,3':3',3''-terindol]-2'(1'H)-one (4g)], half-maximal inhibition (IC50) was put at 7.92 µM.

With `O=C1Nc2ccccc2C1(c1cn(Cc2ccccc2Cl)c2ccccc12)c1cn(Cc2ccccc2Cl)c2ccccc12` [1,1''-bis(2-Chlorobenzyl)-[3,3':3',3''-terindolin]-2'-one (4i)], 7.31 µM corresponded to half-maximal inhibition (IC50).

`CC(C)Cn1cc(C2(c3cn(CC(C)C)c4ccccc34)C(=O)Nc3ccccc32)c2ccccc21` [1,1''-Diisobutyl-[3,3':3',3''-terindolin]-2'-one (4n)] came in with an IC50 of 14.8 µM.
